In patent publication US6472526B1, “Imidazole derivatives having an inhibitory activity for farnesyl transferase and process for preparation thereof” (LG Chemical Ltd., priority 1997, dated 2002):

Experiments:
[1] = molecular target: T1, Ras farnesyl transferase (Homo sapiens, UniProt P49354+P49356); assay: In vitro inhibitory activity for Ras farnesyl transferase, H-Ras substrate; format: biochemical; settings: recombinant farnesyl transferase 4.5 nM, Ras substrate protein 1.5 μM, tritium-farnesylpyrophosphate 0.15 μM, 30 minutes at 37° C.; read-out: H-Ras IC50
T1 construct: made in house
Description: In the present experiment, Ras farnesyl transferase produced by genetic recombination techniques according to the improved Pompliano's method (Pompliano et al., Biochemistry, 1992, 31, 3800) was used, and Ras substrate (Ras-CVLS) protein described in Korean Patent Appln. No. 97-14409 was used after it has been purified according to the known method (see, Chung et al., Biochimica et Biophysica Acta, 1992, 278, 1129).
The enzyme reaction was performed in 50 μl of 50 mM Sodium HEPES buffer solution containing 25 mM of potassium chloride, 25 mM of magnesium chloride, 10 mM of DTT and 50 μM of zinc chloride. 1.5 μM of Ras substrate protein, 0.15 μM of tritium-farnesylpyrophosphate and 4.5 nM of farnesyl transferase were used.
More specifically, in the initial step, farnesyl transferase was added to the above buffer solution, reaction was maintained for 30 minutes at 37° C. and then the reaction was stopped by adding 1 ml of ethanol solution containing 1M HCl. The formed precipitates were adsorbed to GF/B filter using Hopper harvestor(Hopper #FH 225V) for filter-binding, washed with ethanol, and then radioactivity of the dried filter was measured using LKB β counter. Enzyme titer was measured in the unsaturated state of substrate where the concentrations of Ras substrate protein and farnesyl transferase have quantitative relationship. The compound according to the present invention dissolved in dimethyl sulfoxide (DMSO) was added to the reaction solution in an amount of less than 5% of the total reaction solution, and then the enzyme inhibitory activity thereof was measured. The enzyme inhibitory activity was represented by percentage of the amount of farnesyl incorporated into the Ras substrate protein in the presence of the test compound to that in the absence of the test compound. IC50 of the test compound was defined as the concentration at which 50% of the enzyme activity was inhibited.

[2] = molecular target: T1, Ras farnesyl transferase; assay: In vitro inhibitory activity for Ras farnesyl transferase, K-Ras substrate; format: biochemical; settings: in vitro farnesyl transferase assay, K-Ras; read-out: K-Ras IC50
[3] = molecular target: T2, Ras farnesyl transferase (Rattus norvegicus, UniProt Q02293+Q04631); assay: In vivo (cellular) inhibitory activity for Ras farnesyl transferase, Rat2 cell line which expresses C-Harvey-Ras protein; format: cell-based; settings: Rat2 cell line expressing C-Harvey-Ras; concentration inhibiting 50% of farnesyl bonding of Ras protein; read-out: H-Ras CIC50
T2 construct: endogenous in cells; host or cells: Rat2 fibroblasts transformed with H-Ras or with an H-Ras/K-Ras C-terminus fusion
Description: (§1) In the present experiment, Rat2 cell line which expresses C-Harvey-Ras protein having transforming activity and Rat2 cell line (Korean patent application No. 97-14409) which is transformed with fused protein of H-Ras substituted with polybasic lysine domain at C-terminus of K-Ras were used. The experiment was performed by the modified Declue's method (Declue. J. E. et al., Cancer Research, 1991, 51, 712). Hereinafter, the experimental method will be described in more detail.
(§2) 3×10^5 cells of transformed Rat2 fibroblast cell line were sprayed on 60 mm cell cultivation dish and cultivated for 48 hours in a cell incubator at 37° C. and after 50% or more of density was reached, it was treated with the test compounds. The compound according to the present invention dissolved in dimethylsulfoxide (DMSO) was used. 1% concentration of dimethylsulfoxide was used in both control and test groups. After 4 hours from the treatment with the compound, methionine labeled with 150 μCi of radioactive isotope [^35S] per 1 ml of medium was added and after cultivating for 20 hours, the cells were, washed with physiological saline water. The cells were lysed using 1 ml of cold cell lysis buffer solution (50 mM of Sodium HEPES buffer solution containing 5mM of magnesium chloride, 1 mM of DTT, 1% NP 40, 1 mM of EDTA, 1 mM of PMSF, 2 μM of leupeptin, 2 μM of pepstatin A and 2 μM of antipain) and the supernatant wherein the cells were lysed was obtained by high-velocity centrifugation of 12,000 g×5 minutes. The amount of radioisotope in the supernatant was measured and standardized to obtain a quantitative result in immunoprecipitation reaction and then, Y13-259, a monoclonal antibody specifically binding to Ras protein (Furth, M. E. et al., J. Virol, 1982, 43, 294) was added and reacted for 15 hours at 4° C. Protein A(combined with goat anti-murine immunoglobulin antibody)-agarose suspension was added to the solution and reacted for 1 hour at 4° C. and then, to remove the unspecific binding product, immunoprecipitates were washed with a buffer solution (50 mM Tris chloride buffer solution containing 50 mM of sodium chloride, 0.5% of sodium dioxycolate, 0.5% of NP 40 and 0.1% of SDS). The precipitates were added to a buffer solution for electrophoresis and boiled and then, electrophoresis was performed using 13.5% of SDS polyacrylamide gel. After electrophoresis, the gel was fixed and dried. Then, the gel was exposed to X-ray film, developed printed. From the result of the experiment, intensities of band of in combined with or without farnesyl of Ras protein were measured, the concentration of the test compound inhibiting 50% of farnesyl bonding was defined as […], an in vivo Ras farnesyl transferase inhibitory activity.

[4] = molecular target: T2, Ras farnesyl transferase; assay: In vivo (cellular) inhibitory activity for Ras farnesyl transferase, Rat2 cell line transformed with fused protein of H-Ras substituted with polybasic lysine domain at C-terminus of K-Ras; format: cell-based; settings: Rat2 cell line transformed with H-Ras fused with polybasic lysine domain of K-Ras C-terminus; concentration inhibiting 50% of farnesyl bonding; read-out: K-Ras CIC50
Description: as §1, §2

SMILES | IC50 [1] [nM] | IC50 [2] [nM] | IC50 [3] [nM] | IC50 [4] [nM]
C[C@@H](c1ccccc1)n1cncc1Cn1cc(C(=O)N2CCN(C)CC2)c(-c2cccc3ccccc23)c1 [Compound 13, 1-[1-((S)-α-Methylbenzyl)-1H-imidazol-5-ylmethyl]-3-(4-methylpiperazin-1-yl)carbonyl-4-(naphthalen-1-yl)-1H-pyrrole] | 0.85 | 5 | 12.5 | 10000 to 50000
COCCN(C)C(=O)c1cn(Cc2cncn2CCc2ccccc2)cc1-c1cccc2ccccc12 [Compound 14, 3-[N-(2-Methoxyethyl)-N-methyl]carbamoyl-4-(naphthalen-1-yl)-1-[1-(phenethyl)-1H-imidazol-5-ylmethyl]-1H-pyrrole] | 2 | 5 | 12.5 | 10000 to 50000
O=C(c1cn(Cc2cncn2CCc2ccccc2)cc1-c1cccc2ccccc12)N1CCOCC1 [Compound 15] | 5 | 10 | 25 | 10000 to 50000
CN1CCN(C(=O)c2cn(Cc3cncn3CCc3ccccc3)cc2-c2cccc3ccccc23)CC1 [Compound 16, 3-(4-Methylpiperazin-1-yl)carbonyl-4-(naphthalen-1-yl)-1-[1-(phenethyl)-1H-imidazol-5-ylmethyl)-1H-pyrrole] | 1.2 | 5 | 12.5 | 10000 to 50000
COCCN(C)C(=O)c1cn(Cc2cncn2CCc2ccccc2OC)cc1-c1cccc2ccccc12 [Compound 17, 3-[N-(2-Methoxyethyl)-N-methyl]carbamoyl-1-[1-(2-methoxy)phenethyl-1H-imidazol-5-yl]methyl-4-(naphthalen-1-yl)-1H-pyrrole] | 2 | 3 | 25 | 10000 to 50000
COc1ccccc1CCn1cncc1Cn1cc(C(=O)N2CCN(C)CC2)c(-c2cccc3ccccc23)c1 [Compound 18, 1-[1-(2-Methoxy)phenethyl-1H-imidazol-5-yl]methyl-3-[4-methylpiperazin-1-yl]carbonyl-4-(naphthalen-1-yl)-1H-pyrrole] | 1 | 2 | 25 | 10000 to 50000
COCCN(C)C(=O)c1cn(Cc2cncn2CCc2ccc(OC)cc2)cc1-c1cccc2ccccc12 [Compound 19, 3-[N-(2-Methoxyethyl)-N-methyl]carbamoyl-1-[1-(4-methoxy)phenethyl-1H-imidazol-5-yl]methyl-4-(naphthalen-1-yl)-1H-pyrrole] | 1 | 3 | 20 | 10000 to 50000
COc1ccc(CCn2cncc2Cn2cc(C(=O)N3CCN(C)CC3)c(-c3cccc4ccccc34)c2)cc1 [Compound 20, 1-[1-(4-Methoxy)phenethyl-1H-imidazol-5-yl]methyl-3-[4-methylpiperazin-1-yl]carbonyl-4-(naphthalen-1-yl)-1H-pyrrole] | 1 | 2 | 20 | 10000 to 50000
COCCN(C)C(=O)c1cn(Cc2cncn2CCc2ccccc2F)cc1-c1cccc2ccccc12 [Compound 21, 1-[1-(2-Fluoro)phenethyl-1H-imidazol-5-yl]methyl-3-[N-(2-methoxyethyl)-N-methyl]carbamoyl-4-(naphthalen-1-yl)-1H-pyrrole] | 1 | 1 | 21 | 10000 to 50000
CN1CCN(C(=O)c2cn(Cc3cncn3CCc3ccccc3F)cc2-c2cccc3ccccc23)CC1 [Compound 22, 1-[1-(2-Fluoro)phenethyl-1H-imidazol-5-yl]methyl-3-[4-methylpiperazin-1-yl]carbonyl-4-(naphthalen-1-yl)-1H-pyrrole] | 1 | 2 | 20 | 10000 to 50000
COCCN(C)C(=O)c1cn(Cc2cncn2CCc2ccccc2Cl)cc1-c1cccc2ccccc12 [Compound 23, 1-[1-(2-Chloro)phenethyl-1H-imidazol-5-yl]methyl-3-[N-(2-methoxyethyl)-N-methyl]carbamoyl-4-(naphthalen-1-yl)-1H-pyrrole] | 2 | 2 | 23 | 10000 to 50000
